Data: PubChem BioAssay AID256 (DTP/NCI, 2004)
Values joined by “and” are separate entries in the source; they are usually repeats but may differ in a detail not shown here. Identical values can stand only once. Inconclusive results and toxic doses are left out.

Tested on: CD2F1 mice, L1210 leukemia ip, survival T/C
Assay: NCI In Vivo Anticancer Drug Screen. Data for tumor model L1210 Leukemia (intraperitoneal) in CD2F1 (CDF1) mice
Details: higher = longer survival
Summary of the method: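 Ratio T/C, where T is the treated-group value and C the vehicle-dosed control value, from mice implanted with a transplantable tumor.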

[1] = endpoint: mean survival time, dose: 100.0 mg/kg/injection, schedule: Q04DX003 (ip), vehicle: saline with Tween-80
[2] = endpoint: mean survival time, dose: 200.0 mg/kg/injection, schedule: Q04DX003 (ip), vehicle: saline with Tween-80
[3] = endpoint: mean survival time, dose: 400.0 mg/kg/injection, schedule: Q04DX003 (ip), vehicle: saline with Tween-80
[4] = endpoint: mean survival time, dose: 25.0 mg/kg/injection, schedule: Q01DX009 (ip), vehicle: saline with Tween-80
[5] = endpoint: mean survival time, dose: 50.0 mg/kg/injection, schedule: Q01DX009 (ip), vehicle: saline with Tween-80
[6] = endpoint: mean survival time, dose: 100.0 mg/kg/injection, schedule: Q01DX009 (ip), vehicle: saline with Tween-80
[7] = endpoint: mean survival time, dose: 200.0 mg/kg/injection, schedule: Q01DX009 (ip), vehicle: saline with Tween-80
[8] = endpoint: mean survival time, dose: 400.0 mg/kg/injection, schedule: Q01DX009 (ip), vehicle: saline with Tween-80

`O=C(Nc1cccc(C(F)(F)F)c1)c1cccc(Cl)c1` was tested, and the T/C (endpoint: mean survival time, dose: 100.0 mg/kg/injection, schedule: Q01DX009 (ip), vehicle: saline + alcohol) was 94 % of control, the T/C (endpoint: mean survival time, dose: 100.0 mg/kg/injection, schedule: Q04DX003 (ip), vehicle: saline + alcohol) was 95 % of control and the T/C (endpoint: mean survival time, dose: 200.0 mg/kg/injection, schedule: Q01DX009 (ip), vehicle: saline + alcohol) was 94 % of control. The T/C (endpoint: mean survival time, dose: 200.0 mg/kg/injection, schedule: Q04DX003 (ip), vehicle: saline + alcohol) was 97 % of control, the T/C (endpoint: mean survival time, dose: 400.0 mg/kg/injection, schedule: Q01DX009 (ip), vehicle: saline + alcohol) was 98 % of control and the T/C (endpoint: mean survival time, dose: 400.0 mg/kg/injection, schedule: Q04DX003 (ip), vehicle: saline + alcohol) was 101 % of control.

For `Cc1cc(NCCN(C(C)C)C(C)C)nc(/N=C(\N)Nc2ccc(Cl)c(C(F)(F)F)c2)n1`, the T/C (endpoint: mean survival time, dose: 1.25 mg/kg/injection, schedule: Q01DX009 (ip), vehicle: Klucel (hydroxypropylcellulose) (HPC)) was 98 % of control, the T/C (endpoint: mean survival time, dose: 2.5 mg/kg/injection, schedule: Q01DX009 (ip), vehicle: Klucel (hydroxypropylcellulose) (HPC)) was 103 % of control and the T/C (endpoint: mean survival time, dose: 5.0 mg/kg/injection, schedule: Q01DX009 (ip), vehicle: Klucel (hydroxypropylcellulose) (HPC)) was 105 % of control. For the same molecule, the T/C (endpoint: mean survival time, dose: 10.0 mg/kg/injection, schedule: Q01DX009 (ip), vehicle: Klucel (hydroxypropylcellulose) (HPC)) was 101 % of control, the T/C (endpoint: mean survival time, dose: 20.0 mg/kg/injection, schedule: Q01DX009 (ip), vehicle: Klucel (hydroxypropylcellulose) (HPC)) was 100 % of control and the T/C (endpoint: mean survival time, dose: 40.0 mg/kg/injection, schedule: Q01DX009 (ip), vehicle: Klucel (hydroxypropylcellulose) (HPC)) was 88 % of control.

In the case of `CC1(C)CN1P(=S)(N1CC1(C)C)N1CC1(C)C` (centres undefined), the T/C (endpoint: mean survival time, dose: 338.0 mg/kg/injection, schedule: Q01DX001 (ip), vehicle: other) was 190 % of control and 277 % of control.

In the case of `O=C(C/C(=N\N(C(=O)c1ccccc1)c1ccccc1)c1ccccc1)c1ccccc1`, the T/C [1] was 92 % of control, the T/C [2] was 97 % of control and the T/C [3] was 100 % of control.

`O=S(=O)(O)C(S(=O)(=O)O)S(=O)(=O)O` was tested, and the T/C [1] was 96 % of control, the T/C [2] was 97 % of control and the T/C [3] was 93 % of control.

`Cc1ccc(S(=O)(=O)ON/N=C2\C(=O)C3CCC2C3)cc1` (centres undefined) was tested, and the T/C (endpoint: mean survival time, dose: 25.0 mg/kg/injection, schedule: Q04DX002 (ip), vehicle: saline with Tween-80) was 100 % of control, the T/C (endpoint: mean survival time, dose: 50.0 mg/kg/injection, schedule: Q04DX002 (ip), vehicle: saline with Tween-80) was 96 % of control and the T/C (endpoint: mean survival time, dose: 100.0 mg/kg/injection, schedule: Q04DX002 (ip), vehicle: saline with Tween-80) was 112 % of control.

With `COC1OC(Nc2nc(SC)[nH]c(=O)c2C(C)=O)C(O)C(O)C1O` (centres undefined) the T/C (endpoint: median survival time, dose: 12.5 mg/kg/injection, schedule: Q01DX005 (ip), vehicle: saline with Tween-80) was 98 % of control, the T/C (endpoint: median survival time, dose: 25.0 mg/kg/injection, schedule: Q01DX005 (ip), vehicle: saline with Tween-80) was 97 % of control and the T/C (endpoint: median survival time, dose: 50.0 mg/kg/injection, schedule: Q01DX005 (ip), vehicle: saline with Tween-80) was 94 % of control. For the same molecule, the T/C (endpoint: median survival time, dose: 100.0 mg/kg/injection, schedule: Q01DX005 (ip), vehicle: saline with Tween-80) was 95 % of control and the T/C (endpoint: median survival time, dose: 200.0 mg/kg/injection, schedule: Q01DX005 (ip), vehicle: saline with Tween-80) was 97 % of control.

With `COC1=CC2c3ccccc3C1C1C(OC)=CC2c2ccccc21` the T/C [4] was 96 % of control, the T/C [5] was 98 % of control and the T/C [6] was 96 % of control. The T/C [1] was 88 % of control.

`Nc1cc(S(=O)(=O)O)c2cccnc2c1O` was tested, and the T/C (endpoint: mean survival time, dose: 100.0 mg/kg/injection, schedule: Q04DX003 (ip), vehicle: saline) was 114 % of control and the T/C (endpoint: mean survival time, dose: 200.0 mg/kg/injection, schedule: Q04DX003 (ip), vehicle: saline) was 108 % of control.

For `COc1cc(/C=C/c2ccc3ccccc3n2)cc(OC)c1OC`, the T/C [6] was 94 % of control, the T/C [1] was 104 % of control and the T/C [7] was 91 % of control. The T/C [2] was 96 % of control, the T/C [8] was 89 % of control and the T/C [3] was 98 % of control.

`COc1ccc(CCc2nc(CCCCO)[nH]c2C)cc1OC` was tested, and the T/C [6] was 92 % of control.

With `O=S=NNc1ccccc1` the T/C (endpoint: mean survival time, dose: 12.5 mg/kg/injection, schedule: Q01DX009 (ip), vehicle: saline with Tween-80) was 108 % of control, the T/C [4] was 102 % of control and the T/C [5] was 88 % of control and 90 % of control. The T/C [1] was 95 % of control and the T/C [2] was 89 % of control.

In the case of `C=CCOCC(O)C[As](=O)(O)c1ccc(OC)cc1` (centres undefined), the T/C (endpoint: mean survival time, dose: 6.25 mg/kg/injection, schedule: Q04DX003 (ip), vehicle: saline with Tween-80) was 92 % of control, the T/C (endpoint: mean survival time, dose: 12.5 mg/kg/injection, schedule: Q04DX003 (ip), vehicle: saline with Tween-80) was 101 % of control and the T/C (endpoint: mean survival time, dose: 25.0 mg/kg/injection, schedule: Q04DX003 (ip), vehicle: saline with Tween-80) was 98 % of control.

For `CC(C)(C)NC(=O)CCC1C2C=CC(C2)C1C#N` (centres undefined), the T/C [1] was 93 % of control, the T/C [2] was 91 % of control and the T/C [3] was 98 % of control.

With `O=S(=O)(O)SCCN1CCOCC1` the T/C (endpoint: mean survival time, dose: 100.0 mg/kg/injection, schedule: Q01DX009 (ip), vehicle: saline) was 103 % of control, the T/C [1] was 101 % of control and the T/C (endpoint: mean survival time, dose: 200.0 mg/kg/injection, schedule: Q01DX009 (ip), vehicle: saline) was 106 % of control. For the same molecule, the T/C [2] was 101 % of control, the T/C (endpoint: mean survival time, dose: 400.0 mg/kg/injection, schedule: Q01DX009 (ip), vehicle: saline) was 104 % of control and the T/C [3] was 100 % of control.

For `N#CCc1ccc(N=Nc2c(N)nc(N)[nH]c2=O)cc1`, the T/C [6] was 99 % of control, the T/C [7] was 96 % of control and the T/C [8] was 87 % of control.

`CC(O)C1=CC(c2ccccc2)(c2ccccc2)c2ccccc21` (centres undefined) was tested, and the T/C (endpoint: mean survival time, dose: 100.0 mg/kg/injection, schedule: Q01DX001 (ip), vehicle: saline with Tween-80) was 95 % of control, the T/C (endpoint: mean survival time, dose: 200.0 mg/kg/injection, schedule: Q01DX001 (ip), vehicle: saline with Tween-80) was 91 % of control and the T/C (endpoint: mean survival time, dose: 400.0 mg/kg/injection, schedule: Q01DX001 (ip), vehicle: saline with Tween-80) was 88 % of control.

With `Nc1ncnc2c1nc(-c1ccccc1)n2C1OC(CO)C(O)C1O` (centres undefined) the T/C (endpoint: median survival time, dose: 25.0 mg/kg/injection, schedule: Q01DX005 (ip), vehicle: distilled water + Tween-80) was 100 % of control, the T/C (endpoint: median survival time, dose: 50.0 mg/kg/injection, schedule: Q01DX005 (ip), vehicle: distilled water + Tween-80) was 97 % of control and the T/C (endpoint: median survival time, dose: 100.0 mg/kg/injection, schedule: Q01DX005 (ip), vehicle: distilled water + Tween-80) was 100 % of control. The T/C (endpoint: median survival time, dose: 200.0 mg/kg/injection, schedule: Q01DX005 (ip), vehicle: distilled water + Tween-80) was 100 % of control.

`COC(=O)[CH](C[N+](=O)[O-])[Hg][Cl]` (centres undefined) was tested, and the T/C (endpoint: mean survival time, dose: 6.25 mg/kg/injection, schedule: Q01DX009 (ip), vehicle: saline with Tween-80) was 97 % of control and the T/C (endpoint: mean survival time, dose: 12.5 mg/kg/injection, schedule: Q04DX003 (ip), vehicle: saline) was 94 % of control.

With `Cn1c(=O)c2c(nc(-c3ccccc3)n2O)n(C)c1=O` the T/C (endpoint: mean survival time, dose: 12.5 mg/kg/injection, schedule: Q01DX005 (ip), vehicle: other) was 97 % of control, the T/C (endpoint: mean survival time, dose: 25.0 mg/kg/injection, schedule: Q01DX005 (ip), vehicle: other) was 105 % of control and the T/C (endpoint: mean survival time, dose: 50.0 mg/kg/injection, schedule: Q01DX005 (ip), vehicle: other) was 92 % of control. The T/C (endpoint: mean survival time, dose: 100.0 mg/kg/injection, schedule: Q01DX005 (ip), vehicle: other) was 97 % of control.

For `CC(=O)Oc1ccc(C2NNC3(O)C(=O)N(C4CCCCC4)CC23)cc1` (centres undefined), the T/C [1] was 90 % of control, the T/C [2] was 94 % of control and the T/C [3] was 98 % of control.

In the case of `CCOC(=O)C1C(=O)N(c2ccccc2)C(=O)N1c1ccccc1` (centres undefined), the T/C (endpoint: mean survival time, dose: 12.5 mg/kg/injection, schedule: Q01DX009 (ip), vehicle: other) was 89 % of control, the T/C (endpoint: mean survival time, dose: 25.0 mg/kg/injection, schedule: Q01DX009 (ip), vehicle: other) was 89 % of control and the T/C (endpoint: mean survival time, dose: 50.0 mg/kg/injection, schedule: Q01DX009 (ip), vehicle: other) was 103 % of control. For the same molecule, the T/C (endpoint: mean survival time, dose: 100.0 mg/kg/injection, schedule: Q01DX009 (ip), vehicle: other) was 93 % of control and the T/C (endpoint: mean survival time, dose: 200.0 mg/kg/injection, schedule: Q01DX009 (ip), vehicle: other) was 98 % of control.

With `CC1(C)SC(C(NC(=O)Cc2ccccc2)C(=O)O)NC1C(=O)O` (centres undefined) the T/C [1] was 101 % of control, the T/C [2] was 103 % of control and the T/C [3] was 95 % of control.

With `CC(=O)NCc1cccc([N+](=O)[O-])c1` the T/C (endpoint: mean survival time, dose: 25.0 mg/kg/injection, schedule: Q01DX005 (ip), vehicle: suspension in saline) was 97 % of control, the T/C (endpoint: mean survival time, dose: 50.0 mg/kg/injection, schedule: Q01DX005 (ip), vehicle: suspension in saline) was 106 % of control and the T/C (endpoint: mean survival time, dose: 100.0 mg/kg/injection, schedule: Q01DX005 (ip), vehicle: suspension in saline) was 105 % of control. The T/C (endpoint: mean survival time, dose: 200.0 mg/kg/injection, schedule: Q01DX005 (ip), vehicle: suspension in saline) was 95 % of control and the T/C (endpoint: mean survival time, dose: 400.0 mg/kg/injection, schedule: Q01DX005 (ip), vehicle: suspension in saline) was 95 % of control.
